# The source made the active and inactive calls. The rule behind the calls is not given here.
# Legend:
# DU-145 [1] = experiment: Cytotoxicity against human DU145 cells after 24 hrs by MTT assay; assay type: functional, cell-based; conditions: DU-145, 24 h
# MCF7 [2] = experiment: Cytotoxicity against human MCF7 cells after 24 hrs by MTT assay; assay type: functional, cell-based; conditions: MCF7, 24 h
# PC-3 [3] = experiment: Cytotoxicity against human PC3 cells assessed as cell viability at 10 uM after 24 hrs by MTT assay; assay type: functional; conditions: PC-3, 24 h, read-out: Activity
# MCF7 [4] = experiment: Cytotoxicity against human MCF7 cells assessed as cell viability at 10 uM after 24 hrs by MTT assay; assay type: functional; conditions: MCF7, 24 h, read-out: Activity
# PC-3 [5] = experiment: Induction of apoptosis in human PC3 cells assessed as necrotic cells at 5 uM after 48 hrs by annexinV/propidium iodide staining-based FITC analysis relative to control; assay type: functional
# PC-3 [6] = experiment: Induction of apoptosis in human PC3 cells assessed as early apoptotic cells at 10 uM after 48 hrs by annexinV/propidium iodide staining-based FITC analysis relative to control; assay type: functional
# PC-3 [7] = experiment: Induction of apoptosis in human PC3 cells assessed as early apoptotic cells at 20 uM after 48 hrs by annexinV/propidium iodide staining-based FITC analysis relative to control; assay type: functional
# DU-145 [8] = experiment: Induction of apoptosis in human DU145 cells assessed as late apoptotic cells at 10 uM after 48 hrs by annexinV/propidium iodide staining-based FITC analysis (reference value: 2.78%); assay type: functional
# DU-145 [9] = experiment: Induction of apoptosis in human DU145 cells assessed as necrotic cells at 10 uM after 48 hrs by annexinV/propidium iodide staining-based FITC analysis (reference value: 0.35%); assay type: functional
# DU-145 [10] = experiment: Induction of apoptosis in human DU145 cells assessed as early apoptotic cells at 20 uM after 48 hrs by annexinV/propidium iodide staining-based FITC analysis (reference value: 2.34%); assay type: functional
# DU-145 [11] = experiment: Induction of apoptosis in human DU145cells assessed as late apoptotic cells at 20 uM after 48 hrs by annexinV/propidium iodide staining-based FITC analysis (reference value: 2.78%); assay type: functional
# DU-145 [12] = experiment: Induction of apoptosis in human DU145 cells assessed as early apoptotic cells at 40 uM after 48 hrs by annexinV/propidium iodide staining-based FITC analysis (reference value: 2.34%); assay type: functional
# DU-145 [13] = experiment: Induction of apoptosis in human DU145 cells assessed as late apoptotic cells at 40 uM after 48 hrs by annexinV/propidium iodide staining-based FITC analysis (reference value: 2.78%); assay type: functional
# DU-145 [14] = experiment: Induction of apoptosis in human DU145 cells assessed as necrotic cells at 40 uM after 48 hrs by annexinV/propidium iodide staining-based FITC analysis (reference value: 0.35%); assay type: functional
# MCF7 [15] = experiment: Induction of apoptosis in human MCF7 cells assessed as necrotic cells at 5 uM after 48 hrs by annexinV/propidium iodide staining-based FITC analysis (reference value: 8.28%); assay type: functional
# MCF7 [16] = experiment: Induction of apoptosis in human MCF7 cells assessed as early apoptotic cells at 10 uM after 48 hrs by annexinV/propidium iodide staining-based FITC analysis (reference value: 5.48%); assay type: functional
# MCF7 [17] = experiment: Induction of apoptosis in human MCF7 cells assessed as necrotic cells at 10 uM after 48 hrs by annexinV/propidium iodide staining-based FITC analysis (reference value: 8.28%); assay type: functional
# K562 [18] = experiment: Induction of apoptosis in human K562 cells assessed as early apoptotic cells at 1 uM after 48 hrs by annexinV/propidium iodide staining-based FITC analysis (reference value: 2.08%); assay type: functional
# K562 [19] = experiment: Induction of apoptosis in human K562 cells assessed as late apoptotic cells at 1 uM after 48 hrs by annexinV/propidium iodide staining-based FITC analysis (reference value: 2.55%); assay type: functional
# K562 [20] = experiment: Induction of apoptosis in human K562 cells assessed as early apoptotic cells at 5 uM after 48 hrs by annexinV/propidium iodide staining-based FITC analysis (reference value: 2.08%); assay type: functional
# PC-3 [21] = experiment: Cell cycle arrest in human PC3 cells assessed as accumulation at G2/M phase after 48 hrs by propidium iodide staining-based flow cytometric analysis; assay type: functional
# PC-3 [22] = experiment: Cell cycle arrest in human PC3 cells assessed as accumulation at G0/G1 phase at 20 uM after 48 hrs by propidium iodide staining-based flow cytometric analysis relative to control; assay type: functional
# PC-3 [23] = experiment: Cell cycle arrest in human PC3 cells assessed as accumulation at S phase at 20 uM after 48 hrs by propidium iodide staining-based flow cytometric analysis relative to control; assay type: functional
# DU-145 [24] = experiment: Induction of apoptosis in human DU145 cells assessed as accumulation at G0/G1 phase at 40 uM after 48 hrs by propidium iodide staining-based flow cytometric analysis (reference value: 72.11%); assay type: functional
# DU-145 [25] = experiment: Induction of apoptosis in human DU145 cells assessed as accumulation at G2/M phase at 40 uM after 48 hrs by propidium iodide staining-based flow cytometric analysis (reference value: 16.14%); assay type: functional
# MCF7 [26] = experiment: Induction of apoptosis in human MCF7 cells assessed as accumulation at G2/M phase at 5 uM after 48 hrs by propidium iodide staining-based flow cytometric analysis (reference value: 9.55%); assay type: functional
# MCF7 [27] = experiment: Induction of apoptosis in human MCF7 cells assessed as accumulation at G0/G1 phase at 10 uM after 48 hrs by propidium iodide staining-based flow cytometric analysis (reference value: 67.46%); assay type: functional
# MCF7 [28] = experiment: Induction of apoptosis in human MCF7 cells assessed as accumulation at S phase at 10 uM after 48 hrs by propidium iodide staining-based flow cytometric analysis (reference value: 22.99%); assay type: functional
# MCF7 [29] = experiment: Induction of apoptosis in human MCF7 cells assessed as accumulation at G2/M phase at 20 uM after 48 hrs by propidium iodide staining-based flow cytometric analysis (reference value: 9.55%); assay type: functional
# K562 [30] = experiment: Induction of apoptosis in human K562 cells assessed as accumulation at G0/G1 phase at 1 uM after 48 hrs by propidium iodide staining-based flow cytometric analysis (reference value: 38.61%); assay type: functional
# K562 [31] = experiment: Induction of apoptosis in human K562 cells assessed as accumulation at G2/M phase at 1 uM after 48 hrs by propidium iodide staining-based flow cytometric analysis (reference value: 15.72%); assay type: functional
# K562 [32] = experiment: Induction of apoptosis in human K562 cells assessed as accumulation at G0/G1 phase at 5 uM after 48 hrs by propidium iodide staining-based flow cytometric analysis (reference value: 38.61%); assay type: functional
# K562 [33] = experiment: Induction of apoptosis in human K562 cells assessed as accumulation at G2/M phase at 5 uM after 48 hrs by propidium iodide staining-based flow cytometric analysis (reference value: 15.72%); assay type: functional
# K562 [34] = experiment: Induction of apoptosis in human K562 cells assessed as accumulation at S phase at 10 uM after 48 hrs by propidium iodide staining-based flow cytometric analysis (reference value: 45.67%); assay type: functional
# PC-3 [35] = experiment: Inhibition of cyclin A protein expression in human PC3 cells at 20 uM after 48 hrs by Western blot analysis; assay type: functional, cell-based
# PC-3 [36] = experiment: Inhibition of cyclin B1 protein expression in human PC3 cells at 20 uM after 48 hrs by Western blot analysis; assay type: functional, cell-based
# PC-3 [37] = experiment: Increase in Bax protein level in human PC3 cells after 48 hrs by Western blot analysis; assay type: functional, cell-based
smiles,measurement,setting,value
CC[C@H](/C=C/[C@@H](C)[C@H]1CC[C@H]2[C@H]3[C@H]([C@H](O)C[C@]12C)[C@@]1(C)CC[C@H](O)CC1=C[C@H]3O)C(C)C,IC50,DU-145 [1],16.6 µM
same,IC50,MCF7 [2],9.04 µM
same,viability at 10 µM,PC-3 [3],40%
same,viability at 10 µM,MCF7 [4],36%
same,Activity,PC-3 [5],1.87%
same,Activity,PC-3 [6],1.49%
same,Activity,PC-3 [7],3.27%
same,Activity,DU-145 [8],2.48%
same,Activity,DU-145 [9],0.28%
same,Activity,DU-145 [10],2.12%
same,Activity,DU-145 [11],5.73%
same,Activity,DU-145 [12],3.13%
same,Activity,DU-145 [13],13.63%
same,Activity,DU-145 [14],8.01%
same,Activity,MCF7 [15],3.47%
same,Activity,MCF7 [16],6.81%
same,Activity,MCF7 [17],4.47%
same,Activity,K562 [18],1.99%
same,Activity,K562 [19],1.79%
same,Activity,K562 [20],3.77%
same,Activity,PC-3 [21],Dose-dependent effect
same,Activity,PC-3 [22],55.82%
same,Activity,PC-3 [23],14.34%
same,Activity,DU-145 [24],46.47%
same,Activity,DU-145 [25],35.85%
same,Activity,MCF7 [26],8.56%
same,Activity,MCF7 [27],71.05%
same,Activity,MCF7 [28],18.92%
same,Activity,MCF7 [29],24.7%
same,Activity,K562 [30],41.16%
same,Activity,K562 [31],13.08%
same,Activity,K562 [32],40.79%
same,Activity,K562 [33],13.71%
same,Activity,K562 [34],48.25%
same,inhibition,PC-3 [35],Active
same,inhibition,PC-3 [36],Active
same,Activity,PC-3 [37],Dose-dependent effect
